System: Ae. aegypti
Assay: WHO adult susceptibility test on field samples, Ae. aegypti
Type: in vivo, Aedes aegypti
Conditions: standard diagnostic doses
Description: The analyses conducted using data from An. gambiae (s.l.) samples were repeated using data from the An. funestus subgroup, An. arabiensis, An. coluzzii, An. funestus and An. gambiae samples (Additional file 2). The same approach was also used for susceptibility test data from Aedes albopictus and Ae. aegypti to investigate whether the same relationships could be detected in these vectors of arboviruses, as detailed in Additional file 3.
Additional File 3: Cross-resistance to pyrethroids within wild populations of Aedes vectors […]
If structural diversity within the pyrethroids is also associated with divergence in resistance within the Aedes vectors of arboviruses, this would lend weight to the findings for malaria vectors presented in the main manusc ript. Like the Anopheles vectors, target-site mutations and metabolic resistance are thought to be the main resistance mechanisms in Aedes mosquitoes. At least ten mutations in the Aedes aegypti Vgsc gene have been identified and the most widespread mutation, […]
mutations and is also associated with DDT resistance. More recently, the V1016G mutation has been found in Ae. albopictus in Viet Nam and Italy, and both this allele and the F1534C and F1534S […]
expression of cytochrome P450s has also been implicated in pyrethroid resistance within Aedes mosquitoes and there is evidence that metabolic resistance can confer cross -resistance to multiple pyrethroids. For example, over-expression of CYP9J28 is associated with metabolic resistance to […]
target site- and P450-mediated resistance in Ae. aegypti strains found variation in resistance to seven pyrethroids and hypothesised that some patterns of resistance could be linked to structural differences, but also noted that general conclusions are challenging to make without a greater number of compounds with a single modification to compare. No studies of structure activity relationships using a wide range of pyrethroids and P450s from Aedes mosquitoes have been conducted to-date, but data on resistance in wild populations are available. A wider range of pyrethroids are more typically tested by studies of resistance in Aedes vectors, compared to Anopheles vectors, although these studies are also more varied in terms of diagnostic dose, bioass ay method and life cycle stage, making comparisons across studies difficult. Here we selected studies that used a common experimental design and investigated correlations in resistance to pairs of pyrethroids mirroring part of the work on Anopheles vectors presented in the main manuscript.
We identified all instances within a public insecticide resistance database where an Aedes field sample had been subdivided among tests for different pyrethroids. We then identified the most commonly used bioassay type across the new pyrethroid dataset, which was the WHO adult susceptibility test as described for malaria vectors, and the most commonly used diagnostic dose for […]
each compound (Table S2). […]
removed. Paired results were then extracted, and the mean values for the Pearson’s correlation coefficient were calculated for each pyrethroid pair using 1,000 bootstaps in SPSS Statistics v25.
Table S5. Diagnostic doses and data volumes for each pyrethroid.
Pyrethroid Most common dose Number of data points
The number of data points available for each pyrethroid from an Ae. aegypti sample that was used to test at least one other pyrethroid, using standard WHO susceptibility tests and standard diagnostic doses, is given.

[1] = Pair 4 permethrin vs etofenprox, N 31 paired Ae. aegypti samples
[2] = Pair 6 deltamethrin vs permethrin, N 136 paired Ae. aegypti samples
[3] = Pair 8 permethrin vs λ-cyhalothrin, N 56 paired Ae. aegypti samples
[4] = Pair 1 deltamethrin vs etofenprox, N 29 paired Ae. aegypti samples
[5] = Pair 9 deltamethrin vs λ-cyhalothrin, N 67 paired Ae. aegypti samples
[6] = Pair 3 λ-cyhalothrin vs etofenprox, N 21 paired Ae. aegypti samples

Compound | Mean percent mortality (SE) [1] | Mean percent mortality (SE) (Pair 5 permethrin vs cyfluthrin, N 79 paired Ae. aegypti samples) | Mean percent mortality (SE) [2] | Mean percent mortality (SE) [3] | Mean percent mortality (SE) [4] | Mean percent mortality (SE) [5] | Mean percent mortality (SE) (Pair 10 deltamethrin vs cyfluthrin, N 72 paired Ae. aegypti samples) | Mean percent mortality (SE) [6] | Mean percent mortality (SE) (Pair 7 λ-cyhalothrin vs cyfluthrin, N 25 paired Ae. aegypti samples) | Mean percent mortality (SE) (Pair 2 cyfluthrin vs etofenprox, N 22 paired Ae. aegypti samples)
CC1(C)C(C=C(Cl)Cl)C1C(=O)OCc1cccc(Oc2ccccc2)c1 (stereo not shown) [Permethrin, permethrin] | 63.39 (5.36) percent | 59.01 (3.18) percent | 61.44 (2.40) percent | 70.10 (3.99) percent |  |  |  |  |  | 
CC1(C)[C@H](C(=O)O[C@H](C#N)c2cccc(Oc3ccccc3)c2)[C@@H]1C=C(Br)Br [Deltamethrin, deltamethrin] |  |  | 88.10 (1.66) percent |  | 90.68 (2.80) percent | 85.64 (2.66) percent | 88.43 (1.94) percent |  |  | 
CC1(C)[C@H](C(=O)O[C@H](C#N)c2cccc(Oc3ccccc3)c2)[C@@H]1/C=C(\Cl)C(F)(F)F (racemic) [λ-Cyhalothrin, λ-cyhalothrin] |  |  |  | 84.52 (3.40) percent |  | 74.16 (3.55) percent |  | 72.40 (4.52) percent | 66.90 (5.01) percent | 
CCOc1ccc(C(C)(C)COCc2cccc(Oc3ccccc3)c2)cc1 [Etofenprox, etofenprox] | 21.09 (4.89) percent |  |  |  | 21.59 (4.75) percent |  |  | 16.81 (4.43) percent |  | 21.14 (5.32) percent

Reference: publication PMC7893915, “Assessing cross-resistance within the pyrethroids in terms of their interactions with key cytochrome P450 enzymes and resistance in vector populations” (Parasites & Vectors, 2021)
